Measured values as given in patent US20250051347A1, “BIFUNCTIONAL CHIMERIC HETEROCYCLIC COMPOUND AND USE THEREOF AS ANDROGEN RECEPTOR DEGRADER” (Hinova Pharmaceuticals, Inc., priority 2021, published 2025).

Target: T1, androgen receptor (AR) splicing variant AR-v7 (Homo sapiens, UniProt P10275)
T1 construct: The degradation activity of compounds on AR-v7 in 22RV1 cells; host or cells: 22RV1 cells
T1 sequence (P10275 1-644 isoform P10275-3): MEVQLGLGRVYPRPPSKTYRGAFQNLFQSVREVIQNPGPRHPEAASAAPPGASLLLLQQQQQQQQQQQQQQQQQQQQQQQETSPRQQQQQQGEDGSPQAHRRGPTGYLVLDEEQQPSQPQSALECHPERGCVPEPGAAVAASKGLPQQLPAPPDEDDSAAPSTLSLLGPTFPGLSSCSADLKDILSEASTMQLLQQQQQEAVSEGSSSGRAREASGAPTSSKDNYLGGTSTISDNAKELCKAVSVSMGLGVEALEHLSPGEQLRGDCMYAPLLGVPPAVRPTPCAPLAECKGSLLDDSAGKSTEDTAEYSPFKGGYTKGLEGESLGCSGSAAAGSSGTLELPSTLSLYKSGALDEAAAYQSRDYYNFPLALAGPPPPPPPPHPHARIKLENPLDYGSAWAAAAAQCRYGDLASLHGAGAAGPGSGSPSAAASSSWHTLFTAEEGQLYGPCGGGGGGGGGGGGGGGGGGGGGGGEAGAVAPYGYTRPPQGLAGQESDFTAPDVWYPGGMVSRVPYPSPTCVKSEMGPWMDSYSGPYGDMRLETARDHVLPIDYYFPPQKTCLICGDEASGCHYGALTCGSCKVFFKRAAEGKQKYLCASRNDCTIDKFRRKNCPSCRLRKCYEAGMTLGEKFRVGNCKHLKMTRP
Test: Degradation activity on androgen receptor splicing variant AR-v7 in 22RV1 cells (ELISA)
Assay type: cell-based
Details: AR-v7 degradation in 22RV1 cells, 48 h

SMILES | DC50 (numeric values) [µM] | DC50 (class symbols) [µM]
CC(=O)c1nccc(COc2ccc(C(C)(C)c3ccc(OCC4CCN(c5ccc6c(c5)C(=O)N(C5CCC(=O)NC5=O)C6=O)CC4)cc3)cc2)n1 (centres unmarked) [Example 108, 5-(4-((4-(2-(4-((2-acetylpyrimidin-4-yl)methoxy)phenyl)propan-2-yl)phenoxy)methyl)piperidin-1-yl)-2-(2,6-dioxopiperidin-3-yl)isoindol-1,3-dione] | > 10 | –
CC(=O)c1nccc(COc2ccc(C(C)(C)c3ccc(O[C@H]4C[C@H](N(C)c5ccc6c(c5)C(=O)N(C5CCC(=O)NC5=O)C6=O)C4)cc3)cc2)n1 (stereo partly drawn) [Example 111, 5-(((trans)-3-(4-(2-(4-((2-acetylpyrimidin-4-yl)methoxy)phenyl)propan-2-yl)phenoxy)cyclobutyl)(methyl)amino)-2-(2,6-dioxopiperidin-3-yl)isoindolin-1,3-dione] | – | 0.101 to 1
CC(C)(c1ccc(OCc2cccc(C(=O)C3CC3)n2)cc1)c1ccc(O[C@H]2C[C@H](Nc3ccc4c(c3)C(=O)N(C3CCC(=O)NC3=O)C4=O)C2)cc1 (stereo partly drawn) [Example 117, 5-(((trans)-3-(4-(2-(4-((6-(cyclopropanecarbonyl)pyridin-2-yl)methoxy)phenyl)propan-2-yl)phenoxy)cyclobutyl)amino)-2-(2,6-dioxopiperidin-3-yl)isoindolin-1,3-dione] | – | 0.011 to 0.1
Cc1nnc(-c2ccc(Oc3ccc(C(C)(C)c4ccc(O[C@H]5C[C@@H](Nc6ccc7c(=O)n(C8CCC(=O)NC8=O)cnc7c6)C5)cc4)cc3)cn2)o1 (some centres unmarked) [Example 120] | – | 0.011 to 0.1
CC(O)c1ncc(Oc2ccc(C(C)(C)c3ccc(O[C@H]4C[C@@H](Nc5ccc6c(c5)C(=O)N(C5CCC(=O)NC5=O)C6=O)C4)cc3)cc2)cn1 (some centres unmarked) [Example 127] | – | 0.011 to 0.1
CC(O)c1cnc(Oc2ccc(C(C)(C)c3ccc(O[C@H]4C[C@@H](Nc5ccc6c(c5)C(=O)N(C5CCC(=O)NC5=O)C6=O)C4)cc3)cc2)cn1 (some centres unmarked) [Example 129] | – | 0.011 to 0.1
CC(=O)c1nccc(COc2ccc(C(C)(C)c3ccc(OCCCCCCCCOCCCCNc4ccc5c(c4)C(=O)N(C4CCC(=O)NC4=O)C5=O)cc3)cc2)n1 (centres unmarked) [Example 136, 5-((4-((8-(4-(2-(4-((2-acetylpyrimidin-4-yl)methoxy)phenyl)propan-2-yl)phenoxy)octyl)oxy)butyl)amino)-2-(2,6-dioxopiperidin-3-yl)isoindolin-1,3-dione] | – | 0.101 to 1
CNC(=O)c1noc(COc2ccc(C(C)(C)c3ccc(OCCCNc4ccc5c(c4)C(=O)N(C4CCC(=O)NC4=O)C5=O)cc3)cc2)n1 (centres unmarked) [Example 137, 5-((4-(2-(4-(3-((2-(2,6-dioxopiperidin-3-yl)-1,3-dioxoisoindolin-5-yl)amino)propoxy)phenyl)propan-2-yl)phenoxy)methyl)-N-methyl-1,2,4-oxadiazol-3-carbonylaminomethane] | – | 0.011 to 0.1
CC(C)(c1ccc(OCCCNc2ccc3c(c2)C(=O)N(C2CCC(=O)NC2=O)C3=O)cc1)c1ccc(OCc2nc(C(=O)N3CCC3)no2)cc1 (centres unmarked) [Example 139, 5-((3-(4-(2-(4-((3-(azetidin-1-carbonyl)-1,2,4-oxadiazol-5-yl)methoxy)phenyl)propan-2-yl)phenoxy)propyl)amino)-2-(2,6-dioxopiperidin-3-yl)isoindolin-1,3-dione] | – | 0.101 to 1
CC(C)(c1ccc(OCCCNc2ccc3c(c2)C(=O)N(C2CCC(=O)NC2=O)C3=O)cc1)c1ccc(OCc2nc(C(=O)N3CCCC3)no2)cc1 (centres unmarked) [Example 140, 2-(2,6-dioxopiperidin-3-yl)-5-((3-(4-(2-(4-((3-(pyrrolidin-1-carbonyl)-1,2,4-oxadiazol-5-yl)methoxy)phenyl)propan-2-yl)phenoxy)propyl)amino)isoindolin-1,3-dione] | – | 0.101 to 1
CC(=O)c1nccc(COc2ccc(C(C)(C)c3ccc(OC[C@@H]4CCCN4c4ccc5c(c4)C(=O)N(C4CCC(=O)NC4=O)C5=O)cc3)cc2)n1 (stereo partly drawn) [Example 145, 5-((S)-2-((4-(2-(4-((2-acetylpyrimidin-4-yl)methoxy)phenyl)propan-2-yl)phenoxy)methyl)pyrrolidin-1-yl)-2-(2,6-dioxopiperidin-3-yl)isoindolin-1,3-dione] | – | 0.101 to 1
CC(=O)c1nccc(COc2ccc(C(C)(C)c3ccc(OC[C@H]4CC[C@H](Nc5ccc6c(c5)C(=O)N(C5CCC(=O)NC5=O)C6=O)CC4)cc3)cc2)n1 (some centres unmarked) [Example 146] | – | 1 to 5
CC(C)[C@H](COc1ccc(C(C)(C)c2ccc(OCc3ccnc(N4CC5(COC5)C4)n3)cc2)cc1)Nc1ccc2c(c1)C(=O)N(C1CCC(=O)NC1=O)C2=O (some centres unmarked) [Example 149] | – | 1 to 5
CC(COc1ccc(C(C)(C)c2ccc(OCc3ccnc(N4CC5(COC5)C4)n3)cc2)cc1)Nc1ccc2c(c1)C(=O)N(C1CCC(=O)NC1=O)C2=O (centres unmarked) [Example 151, 5-((1-(4-(2-(4-((2-(2-oxa-6-azaspiro[3.3]heptan-6-yl)pyrimidin-4-yl)methoxy)phenyl)propan-2-yl)phenoxy)propan-2-yl)amino)-2-(2,6-dioxopiperidin-3-yl)isoindolin-1,3-dione] | – | 0.011 to 0.1
CC(C)(c1ccc(OCc2ccnc(N3CC4(COC4)C3)n2)cc1)c1ccc(OC2CCCC[C@H]2Nc2ccc3c(c2)C(=O)N(C2CCC(=O)NC2=O)C3=O)cc1 (some centres unmarked) [Example 152] | – | 1 to 5
CC(C)(c1ccc(OCc2ccnc(N3CC4(COC4)C3)n2)cc1)c1ccc(O[C@H]2CC[C@@H](Nc3ccc4c(c3)C(=O)N(C3CCC(=O)NC3=O)C4=O)CC2)cc1 (some centres unmarked) [Example 153, 5-(((1s,4s)-4-(4-(2-(4-((2-(2-oxa-6-azaspiro[3.3]heptan-6-yl)pyrimidin-4-yl)methoxy)phenyl)propan-2-yl)phenoxy)cyclohexyl)amino)-2-(2,6-dioxopyridin-3-yl)isoindolin-1,3-dione] | – | 0.101 to 1
CC(C)(c1ccc(Oc2ncc(F)c(N3CC4(COC4)C3)n2)cc1)c1ccc(O[C@H]2C[C@@H](Nc3ccc4c(c3)C(=O)N(C3CCC(=O)NC3=O)C4=O)C2)cc1 (some centres unmarked) [Example 157] | – | 0.011 to 0.1

Other lines, results leading:

DC50 (numeric values) [µM] | DC50 (class symbols) [µM] | SMILES
– | 0.011 to 0.1 | CC(C)(c1ccc(OCc2ccnc(N3CC4(COC4)C3)n2)cc1)c1ccc(OCC2CC(Nc3ccc4c(c3)C(=O)N(C3CCC(=O)NC3=O)C4=O)C2)cc1 (centres unmarked) [Example 112, 5-((3-((4-(2-(4-((2-(2-oxa-6-azaspiro[3.3]heptan-6-yl)pyrimidin-4-yl)methoxy)phenyl)propan-2-yl)phenoxy)methyl)cyclobutyl)amino)-2-(2,6-dioxopiperidin-3-yl)isoindolin-1,3-dione]
– | 1 to 5 | CC(C)(c1ccc(OCCCOc2ccc3c(c2)C(=O)N(C2CCC(=O)NC2=O)C3=O)cc1)c1ccc(OCc2ccnc(N3CC4(COC4)C3)n2)cc1 (centres unmarked) [Example 113, 5-(3-(4-(2-(4-((2-(2-oxa-6-azaspiro[3.3]heptan-6-yl)pyrimidin-4-yl)methoxy)phenyl)propan-2-yl)phenoxy)propoxy)-2-(2,6-dioxopiperidin-3-yl)isoindolin-1,3-dione]
– | 1 to 5 | CC(C)(c1ccc(OCCNC(=O)c2ccc3c(c2)C(=O)N(C2CCC(=O)NC2=O)C3=O)cc1)c1ccc(OCc2ccnc(N3CC4(COC4)C3)n2)cc1 (centres unmarked) [Example 114, N-(2-(4-(2-(4-((2-(2-oxa-6-azaspiro[3.3]heptan-6-yl)pyrimidin-4-yl)methoxy)phenyl)propan-2-yl)phenoxy)ethyl)-2-(2,6-dioxopiperidin-3-yl)-1,3-dioxoisoindolin-5-carbonylamine]
– | 1 to 5 | CC(C)(c1ccc(OCCCCCCCCOCCCCNc2ccc3c(c2)C(=O)N(C2CCC(=O)NC2=O)C3=O)cc1)c1ccc(OCc2nc(C(N)=O)no2)cc1 (centres unmarked) [Example 138]
– | 1 to 5 | CC(=O)c1nccc(COc2ccc(C(C)(C)c3ccc(OC[C@H]4CCCN4c4ccc5c(c4)C(=O)N(C4CCC(=O)NC4=O)C5=O)cc3)cc2)n1 (stereo partly drawn) [Example 144, 5-((R)-2-((4-(2-(4-((2-acetylpyrimidin-4-yl)methoxy)phenyl)propan-2-yl)phenoxy)methyl)pyrrolidin-1-yl)-2-(2,6-dioxopiperidin-3-yl)isoindolin-1,3-dione]
– | 1 to 5 | CC(C)(c1ccc(OCc2ccnc(N3CC4(COC4)C3)n2)cc1)c1ccc(OC2CCN(Cc3ccc4c(c3)C(=O)N(C3CCC(=O)NC3=O)C4=O)CC2)cc1 (centres unmarked) [Example 147, 5-((4-(4-(2-(4-((2-(2-oxa-6-azaspiro[3.3]heptan-6-yl)pyrimidin-4-yl)methoxy)phenyl)propan-2-yl)phenoxy)piperidin-1-yl)methyl)-2-(2,6-dioxopiperidin-3-yl)isoindolin-1,3-dione]
– | 0.011 to 0.1 | CC(C)[C@@H](COc1ccc(C(C)(C)c2ccc(OCc3ccnc(N4CC5(COC5)C4)n3)cc2)cc1)Nc1ccc2c(c1)C(=O)N(C1CCC(=O)NC1=O)C2=O (some centres unmarked) [Example 150]
– | 0.011 to 0.1 | CC(C)(c1ccc(Oc2nc(N3CC4(COC4)C3)ncc2F)cc1)c1ccc(O[C@H]2C[C@@H](Nc3ccc4c(c3)C(=O)N(C3CCC(=O)NC3=O)C4=O)C2)cc1 (some centres unmarked) [Example 158]
– | 0.011 to 0.1 | CC(C)(c1ccc(Oc2cncc(N3CC4(COC4)C3)n2)cc1)c1ccc(O[C@H]2C[C@@H](Nc3ccc4c(c3)C(=O)N(C3CCC(=O)NC3=O)C4=O)C2)cc1 (some centres unmarked) [Example 159]
